Here are results for 12 molecules from PMC5506043, “Inhibitory effects of local anesthetics on the proteasome and their biological actions” (Scientific Reports, 2017).

Test [1] addresses T1, 20S proteasome (Homo sapiens, UniProt P28074+P49721).
T1 construct: purchased Calbiochem
Further details: method as in PMID 23026372. As to conditions: previously reported; cited from earlier work.

Test [2] has as its target T1, 20S proteasome. The test is described as follows: 20S proteasome activity (chymotrypsin-like, Suc-Leu-Leu-Val-Tyr-MCA substrate). The test is classed as biochemical. As to conditions: for IC50: 37 °C, 1 h. The procedure:
20S Proteasome activity was assessed by fluorescence of free AMC (7-Amino-4-methylcoumarin, excitation: 380 nm, emission: 460 nm) liberated from a substrate peptide (Suc-Leu-Leu-Val-Tyr-MCA). The reaction mixture contained the 20S proteasome (500 μg/ml), the substrate peptide (10 μM) and the indicated drugs in 25 mM HEPES, 0.5 mM EDTA, 0.03% SDS, pH 7.6. The mixture was incubated at 37 °C for 1 h. AMC fluorescence liberated in the absence of drugs was taken as the basal value (100%). The fluorescence liberated in the absence of SDS was taken as the background value (0%)[13]. Most of the activity assays were conducted using an assay kit (Calbiochem), but some were conducted in hand-made buffer solutions.
Concentration dependence of the effects of each drug on the stability of the short-lived protein and the 20S proteasome activity was fitted using the following equation: B%=Bmax·[Drug]^n/(IC50^n+[Drug]^n) where, B% represents the changes in expression of the short-lived protein and the 20S proteasome activity induced by drugs at a given concentration of the [drug], and Bmax represents the maximum attainable reduction. IC50 and n are the half-maximal inhibitory concentration and Hill coefficient, respectively.

In test [3] the target is T1, 20S proteasome. In words: [3H]-pilsicainide binding assay. As to conditions: displacement of [3H]-pilsicainide, 1 h, room temperature. The procedure:
Commercially available 20S proteasome was purchased from Calbiochem. LAs and their derivatives at increasing concentrations (10^–8 to 10^–2 M) were incubated with [^3H]-pilsicainide for 1 h at room temperature in buffer containing 50 mM HEPES supplemented with 1% bovine serum albumin (pH 7.4). Following the reaction termination by addition of 100% […], the bound and unbound ligands were separated by centrifugation. Specific binding was defined as the difference between binding capacities in the pellet and supernatant.

Test [4] deals with Kato III cells. In words: Proliferation of Kato III cells. The test is classed as cell-based. As to conditions: 24 h; pilsicainide 1 μM, lidocaine 20 μM; cells do not express p53.
Test [5] has as its system MKN45 cells. In words: Proliferation of MKN45 cells (MTT assay). The test is classed as cell-based. As to conditions: 24 h, p53-expressing cells. An excerpt:
Figure 4 Effects of LAs on cancer cells. (a) Effects of LAs on the proliferation of MKN45 cells. […] Proliferation of […] was estimated by MTT assays.

The test system of test [6] is p53 in MKN45 cells. In words: Endogenous p53 expression in MKN45 cells (Western blot). As to conditions: 24 h. The class given is cell-based. The procedure:
Cell lysates were analyzed by Western blot analysis (a). Quantitative analysis of p53-FLAG stability using densitometry is shown in (b). Each point was expressed relative to the values in the absence of drugs (100%). […] Cell lysates were analyzed by Western blot analysis (c). Quantitative analysis of the protein level of endogenous p53 was conducted using densitometry (d).
(§1) The same amounts (10 μg) of protein were separated on SDS-PAGE and electro-transferred to a polyvinylidene difluoride membrane. Membranes were probed with antibodies against FLAG (1:1000, Cosmo Bio), GFP (1:1000, Molecular Probes), ubiquitin (1:1000, MBL) or β-actin (1:1000, Oncogene) and were developed using an ECL detection system. Immunoprecipitation was carried out in PBS/1% Triton X-100, 0.5% SDS, 0.25% sodium deoxycholate, 1 mM ethylenediaminetetraacetic acid (EDTA), and 10 μg/ml aprotinin, 10 μg/ml leupeptine, 10 μg/ml pepstatin and 1 mM phenylmethylsulfonylfluoride for 2 h at 4 °C. Immune complexes were collected with protein G agarose (GE Healthcare Life Science) and bound proteins were analyzed by SDS-PAGE followed by immunoblotting.

In test [7] the target is T2, wild-type 20S proteasome caspase-like activity (Saccharomyces cerevisiae, UniProt P38624).
T2 construct: U.B. purified the yeast 20S proteasome and assayed proteasome activity; made in house; host or cells: yeast (purified from wild-type cells; inferred)
The test is described as follows: Caspase-like activity of the wild-type 20S proteasome. The test is classed as biochemical.

Test [8] concerns p53-FLAG in COS7 cells. In words: p53-FLAG expression in transfected COS7 cells (Western blot). The class given is cell-based. The procedure:
pcDNA3/p53-FLAG was a kind gift from Dr. Nakayama (Kyushu University). pcDNA3/Mdm2 (C438A) was a kind gift from Dr. Yasuda (Tokyo Pharmaceutical College). pCR/CMV/hH1 was a kind gift from Dr. Makita (Hokkaido University). COS7 cells were maintained in Dulbecco’s modified Eagle medium (Gibco BRL)/10% fetal bovine serum at 37 °C in a 5% CO2 incubator. Cells were transfected using lipofectamine (Gibco BRL) according to the instructions provided by the manufacturer. Forty-eight hours after transfection, cells were assayed. Proteasome inhibitors or LAs were applied 36 hours after transfection. All drugs except for MG132 were dissolved in culture medium or distilled water. MG132 was dissolved in dimethyl sulfoxide (DMSO). The final concentration of DMSO in the culture or reaction medium was equal to or less than 0.01% v/v. Pilsicainide was kindly provided by Daiichi Suntory Pharmaceutical Co., Ltd. (Osaka, Japan).
as §1

The target of test [9] is T3, wild-type 20S proteasome trypsin-like activity (Saccharomyces cerevisiae, UniProt P25043).
T3 construct: U.B. purified the yeast 20S proteasome and assayed proteasome activity; made in house; host or cells: yeast (purified from wild-type cells; inferred)
The test is described as follows: Trypsin-like activity of the wild-type 20S proteasome. The class given is biochemical.

Test [10] relates to MKN45 cells. In words: Tumor growth of pretreated MKN45 cells transplanted into mice. The test is classed as in vivo. As to conditions: MKN45 cells pretreated with drug, transplanted into the intestine of SOD SKID mice.
The mark [11] stands for this setting: COS7 cells transfected with p53-FLAG.
[12] abbreviates: COS7 cells, dominant negative Mdm2 (C438A), 12 h, MG132 50 µM, pilsicainide 20 µM, lidocaine 1 mM.

Read-outs that look alike come from different tables or passages of the source. Where a SMILES comes first, the peptide text is derived from it. The star is where a group is joined. Cbz = O=C(OCc1ccccc1)*

Regarding `CC(C)COCC(CN(Cc1ccccc1)c1ccccc1)N1CCCC1` (stereo not drawn) [bepridil], in test [1], the “Inhibitory action on the proteasome (in words)” value is “did not show the inhibitory action on the proteasome”.
In the case of `NC1=N[C@H](O)[C@H]2[C@H]3O[C@]4(O)O[C@@H]([C@@H](O)[C@@]2(N1)[C@@H]4O)[C@]3(O)CO` [Tetrodotoxin], the “Effect on 20S proteasome activity (in words)” value in test [2] is given as “did not inhibit 20S proteasome activity”.
On to `CCN(CC)CCCN(c1ccccc1)C1Cc2ccccc2C1` [aprindine], for which the “Effect on 20S proteasome activity (in words)” value in [2] (in vitro) is “inhibit the 20S proteasome”.
For `COc1ccc(CCN(C)CCCC(C#N)(c2ccc(OC)c(OC)c2)C(C)C)cc1OC` (stereo not drawn) [verapamil], the “Effect on 20S proteasome activity (in words)” value in test [2] is recorded as “Neither the Ca^2+ channel blocker verapamil which contains two aromatic rings, nor the K^+ channel blocker E-4031, affected the activity”.
Turning to `Cc1cccc(C)c1OCC(C)N` (stereo not drawn) [mexiletine], in test [2] (in vitro), the “Effect on 20S proteasome activity (in words)” value is on record as “inhibit the 20S proteasome” and the half-maximal inhibitory concentration (IC50) turned out to be 14 ± 6.3 µM.
On to `Cc1cccc(C)c1NC(=O)CC12CCCN1CCC2` [pilsicainide], for which the dissociation constant Kd in test [3] worked out at 1 ± 2.8 µM. In [2] (in vitro), the “Effect on 20S proteasome activity (in words)” value was “inhibited 20S proteasome activity” and inhibition was half-maximal at 3.5 ± 1.5 µM (IC50). Moreover, the “Suppression of proliferation of Kato III cells (in words)” value in [4] is listed as “not observed”. In test [5], the “Proliferation of MKN45 cells (in words)” value is “suppressed proliferation of MKN45 cells in a dose-dependent manner”. Further, in test [6], the “Endogenous p53 protein level (in words)” value is given as “increased the p53 protein level in MKN45 cells in a dose-dependent manner”. For the same molecule, in test [7], the “Caspase-like activity inhibition (in words)” value was “not inhibited”. Also, the “Expression of p53-FLAG protein (in words)” value in [8] (setting [11]) is “increased the expression of p53-FLAG”. Further, the “Effect on p53-FLAG with co-expression of the C438A mutant of Mdm2 (in words)” value (“Effect on p53-FLAG with co-expression” for short) in test [8] (setting [12]) is “abolished the effects”. In addition, in test [9], the “Trypsin-like activity inhibition (in words)” value is listed as “not inhibited”.
Consider `CCN(CC)CC(=O)Nc1c(C)cccc1C` [lidocaine], for which the “Tumor growth of transplanted MKN45 cells (in words)” value in [10] is recorded as “significantly decreased the proliferation of MKN45 cells”; in test [10] (listed as Lidocaine), “suppression of tumor growth”. In addition, the equilibrium dissociation constant (Kd) in [3] stood at 21.2 ± 3.5 µM. Besides, the “Effect on 20S proteasome activity (in words)” value in test [2] (in vitro) is “inhibited 20S proteasome activity”. Also, the “Suppression of proliferation of Kato III cells (in words)” value in [4] was “not observed”. In test [5], the “Proliferation of MKN45 cells (in words)” value is given as “suppressed proliferation of MKN45 cells in a dose-dependent manner”. For the same molecule, the “Endogenous p53 protein level (in words)” value in test [6] is given as “increased the p53 protein level in MKN45 cells in a dose-dependent manner”. Also, the “Expression of p53-FLAG protein (in words)” value in [8] (setting [11]) is listed as “increased the expression of p53-FLAG”. In addition, the “Effect on p53-FLAG with co-expression” value in test [8] (setting [12]) is listed as “abolished the effects”.
Consider `O=C(CC12CCCN1CCC2)Nc1cccc(F)c1` [3-F], for which, in [2] (in vitro), the “Effect on 20S proteasome activity (in words)” value was “partially inhibited” and the IC50 was determined as 20.5 ± 21.8 µM.
Turning to `Cc1cccc(CCN2CCC(C(=O)c3ccc(NS(C)(=O)=O)cc3)CC2)n1` [E-4031], the “Effect on 20S proteasome activity (in words)” value in test [2] (in vitro) is listed as “Neither the Ca^2+ channel blocker verapamil which contains two aromatic rings, nor the K^+ channel blocker E-4031, affected the activity”.
Regarding `O=C(CC12CCCN1CCC2)Nc1ccccc1F` [2-F], in test [2] (in vitro), the “Effect on 20S proteasome activity (in words)” value is on record as “partially inhibited” and the concentration for half-maximal inhibition (IC50) amounted to 21.5 ± 46.8 µM.
On to `CC(C)C[C@@H](C=O)NC(=O)[C@H](CC(C)C)NC(=O)[C@H](CC(C)C)NC(=O)OCc1ccccc1` [MG132] (Cbz-Leu-Leu-Leu-aldehyde), for which, in [8], the “Effect on p53-FLAG with co-expression” value is “abolished the effects” and the “Expression of p53-FLAG protein (in words)” value is given as “increased the expression of p53-FLAG”.
`O=C(CC12CCCN1CCC2)Nc1ccc(F)cc1` [4-F]: the dissociation constant Kd in [3] came to 20 ± 3.2 µM. Also, in test [2] (in vitro), the “Effect on 20S proteasome activity (in words)” value is reported as “partially inhibited”. Also, the “Endogenous p53 protein level (in words)” value in test [6] is given as “increased p53 a little”. In addition, in [8] (setting [11]), the “Expression of p53-FLAG protein (in words)” value is “partially increased”.
